In the supplement of paper PMC10307832:

Columns and labels:
Experiment in all cases: relative viability (nuclei count vs DMSO), 5 days (fraction); higher = more cells survive
Kobe2602 + Navitoclax = compound: C1=CC(=CC=C1NC(=S)NNC2=C(C=C(C=C2[N+](=O)[O-])C(F)(F)F)[N+](=O)[O-])F [Kobe2602] + CC1(C)CCC(c2ccc(Cl)cc2)=C(CN2CCN(c3ccc(C(=O)NS(=O)(=O)c4ccc(N[C@H](CCN5CCOCC5)CSc5ccccc5)c(S(=O)(=O)C(F)(F)F)c4)cc3)CC2)C1 [Navitoclax] (partner 0.5 µM)
In short: (§1)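 Lung cancer cell lines in 1536-well plates got either a single drug or a fixed anchor-drug dose together with five library-drug doses (not always all listed) in √10 steps, by pin tool, on the day after seeding. Nuclei were counted after 5 days, and relative viability is the treated-to-vehicle ratio of nuclei counts. Values are medians of duplicate plates.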

Zosuquidar + Trametinib = compound: O[C@@H](COc1cccc2ncccc12)CN1CCN([C@@H]2c3ccccc3[C@@H]3[C@H](c4ccccc42)C3(F)F)CC1 [Zosuquidar] + CC(=O)Nc1cccc(-n2c(=O)n(C3CC3)c(=O)c3c(Nc4ccc(I)cc4F)n(C)c(=O)c(C)c32)c1 [Trametinib] (partner 0.02 µM)
In short: as §1

Cabozantinib + OSI-027 = compound: COc1cc2nccc(Oc3ccc(NC(=O)C4(C(=O)Nc5ccc(F)cc5)CC4)cc3)c2cc1OC [Cabozantinib] + COc1cccc2cc(-c3nc([C@H]4CC[C@H](C(=O)O)CC4)n4ncnc(N)c34)[nH]c12 [OSI-027] (partner 0.5 µM)
In short: as §1

Zosuquidar + Linsitinib = compound: O[C@@H](COc1cccc2ncccc12)CN1CCN([C@@H]2c3ccccc3[C@@H]3[C@H](c4ccccc42)C3(F)F)CC1 [Zosuquidar] + C[C@]1(O)C[C@@H](c2nc(-c3ccc4ccc(-c5ccccc5)nc4c3)c3c(N)nccn32)C1 [Linsitinib] (partner 1 µM)
In short: as §1

Cell Line	relative viability (Kobe2602 + Navitoclax; first compound 0.2 µM)	relative viability (Kobe2602 + Navitoclax; first compound 0.6325 µM)	relative viability (Kobe2602 + Navitoclax; first compound 2 µM)	relative viability (Kobe2602 + Navitoclax; first compound 6.325 µM)	relative viability (Kobe2602 + Navitoclax; first compound 20 µM)	relative viability (Zosuquidar + Trametinib; first compound 0.01 µM)	relative viability (Zosuquidar + Trametinib; first compound 0.03162 µM)	relative viability (Zosuquidar + Trametinib; first compound 0.3162 µM)	relative viability (Zosuquidar + Trametinib; first compound 1 µM)	relative viability (Cabozantinib + OSI-027; first compound 0.02 µM)	relative viability (Cabozantinib + OSI-027; first compound 0.06325 µM)	relative viability (Cabozantinib + OSI-027; first compound 0.2 µM)	relative viability (Cabozantinib + OSI-027; first compound 0.6325 µM)	relative viability (Cabozantinib + OSI-027; first compound 2 µM)	relative viability (Zosuquidar + Linsitinib; first compound 0.01 µM)	relative viability (Zosuquidar + Linsitinib; first compound 0.03162 µM)	relative viability (Zosuquidar + Linsitinib; first compound 0.1 µM)	relative viability (Zosuquidar + Linsitinib; first compound 0.3162 µM)	relative viability (Zosuquidar + Linsitinib; first compound 1 µM)	relative viability (Zosuquidar + Trametinib; first compound 0.1 µM)
NCI-H1993	0.678	0.707	0.787	0.687	0.729	0.483	0.5	0.591	0.508	0.511	0.528	0.569	0.519	0.543	0.707	0.783	0.698	0.695	0.706	–
LK-2	0.899	1.06	0.815	0.825	0.891	0.822	0.794	0.825	0.89	0.158	0.193	0.211	0.229	0.225	0.663	0.745	0.515	0.722	0.574	0.735
SW 1573	1.05	1.14	0.96	1.02	0.946	0.613	0.605	0.628	0.544	0.59	0.891	0.669	0.606	0.492	0.713	0.728	0.793	0.925	0.859	0.549
NCI-H1915	0.796	0.827	0.797	0.791	0.795	0.296	0.284	0.321	0.301	0.627	0.623	0.631	0.589	0.593	1.14	1.07	1.09	1.12	1.1	0.297
NCI-H661	–	–	–	–	–	0.614	0.549	0.599	0.546	0.667	0.686	0.673	0.675	0.687	0.614	0.653	0.447	0.704	0.69	0.531
NCI-H520	0.99	1.08	1.03	1.07	0.988	0.71	0.938	0.798	0.68	0.215	0.289	0.247	0.286	0.218	0.984	0.945	0.888	0.946	1.08	0.598
COR-L 105	0.525	0.756	0.786	0.909	0.784	0.459	0.435	0.266	0.481	0.682	0.785	–	0.667	0.71	0.889	0.975	0.869	1.15	1.05	0.408
NCI-H1563	–	–	–	–	–	–	–	–	–	0.762	0.743	0.757	0.718	0.684	1.22	1.29	1.13	1.2	1.26	–
NCI-H1703	1.44	1.24	1.12	0.893	1.06	–	–	–	–	–	–	–	–	–	1.13	0.979	0.543	1.57	0.74	–
NCI-H358	–	–	–	–	–	0.133	0.132	0.125	0.125	0.641	0.888	0.628	0.74	0.67	0.768	0.726	0.715	0.735	0.75	0.155
EBC-1	0.373	0.488	0.436	0.452	0.483	–	–	–	–	–	–	–	–	–	0.956	0.923	0.747	1.16	0.845	–
ABC-1	–	–	–	–	–	–	–	–	–	0.538	0.497	0.489	0.567	0.456	0.877	0.794	0.836	0.871	0.924	–
NCI-H650	–	–	–	–	–	1.22	0.957	0.969	1.08	–	0.567	0.552	0.544	0.535	0.886	0.629	–	0.965	0.921	1
NCI-H1650	1.08	1.33	0.948	1.36	1.22	0.488	0.577	0.661	0.601	0.597	0.724	0.438	0.622	0.484	–	–	–	–	–	0.702
NCI-H1648	–	–	–	–	–	0.479	0.454	0.469	0.408	0.255	0.256	0.278	0.281	0.266	–	–	–	–	–	0.465
A549	1.26	1.21	1.22	1.11	1.17	–	–	–	–	–	–	–	–	–	0.766	0.571	0.416	0.53	0.564	–
NCI-H1299	1.07	1.04	1.06	1.08	1.02	–	–	–	–	–	–	–	–	–	1.03	0.955	0.967	0.992	0.959	–
NCI-H2170	0.65	0.597	0.56	0.57	0.622	0.85	0.929	0.952	0.869	0.724	0.752	0.608	0.732	0.731	–	–	–	–	–	0.868
NCI-H1623	–	–	–	–	–	–	–	–	–	0.392	0.483	0.38	0.414	0.436	–	–	–	–	–	–
NCI-H522	–	–	–	–	–	0.81	0.706	0.723	0.719	0.585	0.79	0.7	0.766	0.767	–	–	–	–	–	0.843
Calu-6	0.818	0.875	0.866	0.826	0.744	–	–	–	–	–	–	–	–	–	0.905	0.906	0.901	1.12	0.948	–
ChaGo-K-1	1.12	1.26	1.02	1.05	0.933	0.893	0.922	0.943	0.897	0.426	0.589	0.562	0.603	0.505	–	–	–	–	–	0.874
LCLC-103H	–	–	–	–	–	0.679	0.654	0.676	0.622	0.344	0.561	0.487	0.509	0.394	1.13	1.17	1.05	0.912	1.03	0.679
